Results: US20260115177A1, “MEDICINAL PRODUCTS AND METHODS FOR THE ALLEVIATION OF CANCER IMMUNOTHERA-PY-ASSOCIATED CYTOKINE RELEASE SYNDROME” (POOLBEG PHARMA (UK) LIMITED, priority 2023, published 2026)

Assays:
[1] = test system: CAR T cells; test: CAR T cell proliferation in CAR T cell:cancer cell co-culture (Cell Trace Violet, flow cytometry); format: cell-based, human; conditions: CAR T:tumour cell co-culture 1:1; concentrations of Table 2
Protocol: CAR T cell proliferation is confirmed by Cell Trace™ Violet staining of CAR T cells (staining agent having been added prior to addition of the T cells to the co-cultures with tumour cells). Staining may be observed, following co-culture, via flow cytometry.
(§1) UR-13870, Ralimetinib or Acumapimod are each added to a culture of CD19+ cancer cells (using a micropipette to transfer the correct volume to achieve the desired final concentration in Table 2).
(§2) CAR T cells are then added to the same culture 5-10 minutes later. In brief, CAR T cell concentrations per ml are determined and used to aliquot the desired number of CAR T cells into the culture to achieve the described 1:1 CAR T to cancer cell ratio.
(§3) The co-culture containing CAR T cells and tumour cells is swirled gently to ensure homogenous dispersion of cells throughout the vessel. The resultant co-culture is incubated for 24 to 96 hours in a closed incubator at 37° C. with 5% CO2 and a suitably humid atmosphere.

[2] = test system: CD19+ cancer cells; test: CAR T cell killing of tumour cells in 24-hour co-culture (flow cytometry); format: cell-based, human; conditions: high dose only, CAR T to cancer cell ratio 1:1
Text: Raji immortalized human B cell line CD19-expressing cancer cells (available from the American Type Culture Collection) are acquired and stable transfection of the Raji cell line is generated with an mCherry reporter protein to facilitate identification of the cancer cells within co-cultures by detection of the mCherry protein fluorescence by flow cytometry.
as §1, §2, §3
Tumour cell death is observed by examining relative CAR T cell:tumour cell numbers by flow cytometry following 24 hour co-culture, as shown in FIG. 7.

[3] = test system: CAR T cells; test: T cell exhaustion markers TIM3 and LAG3 on CAR T cells in co-culture (flow cytometry); format: cell-based, human; conditions: CAR T:tumour cell co-culture, concentrations of Table 2; for number of LAG3+ CAR T cells: Ralimetinib 5 μM results to be disregarded
Protocol: as §1, §2, §3
Both T cell surface markers T cell immunoglobulin and mucin domain-containing protein 3 (TIM3/CD366) and Lymphocyte Activation Gene 3 (LAG3/CD223) are associated with T cell exhaustion and disease progression during immunotherapy treatment. Advantageously, all of UR-13870, Ralimetinib and Acumapimod reduce both the number of TIM3+ CAR T cells, and the number of LAG3+ CAR T cells. […] For LAG3+, the results for Ralimetinib at a 5 μM concentration appear to have been affected by experimental failure, and these may be disregarded accordingly.

[4] = test system: CAR T cells; test: TNFα immunosorbent assay of CAR T:tumour cell co-culture supernatant; format: cell-based, human
Protocol: as §1, §2, §3
Cytokine release by T cells is also quantified by TNFα enzyme-based immunosorbent assays of co-culture supernatant, as shown in FIG. 9. Ralimetinib and Acumapimod reduced TNF-α secretion following treatment. Data for UR-13870 were discarded due to failures in the UR-13870 experimental procedure.

[5] = test system: THP-1 monocytes; test: IL-6 ELISA of THP-1 monocytes treated with sCAR; format: cell-based, human; conditions: sCAR stimulation, 24 hours; concentrations of Table 2
Protocol: In Example 3 below, sCAR (or smCAR) is added using a micropipette to an in vitro culture of monocyte cells of the human monocytic cell line THP-1, available from the American Type Culture Collection. The culture is incubated in a closed incubator at 37° C. with 5% CO2 and a suitably humid atmosphere for approximately 24 hours, following which cytokine release is observed. p38 MAPK activation and cytokine release are confirmed by evaluation of the presence of IL-6 in THP-1 cells using an enzyme-linked immunosorbent assay (ELISA; for which a kit is suitably obtainable from Thermo Fisher Scientific of Kingfisher Dr, Swindon SN3 5BZ, UK).
(i) Monocytes sCAR (or smCAR), produced as described in Example 1 above, is added to a monoculture of THP-1 monocytes in the presence of UR-13870, Ralimetinib or Acumapimod at each of the concentrations shown in Table 2 above at 37° C., 5% CO2 and a suitably humid environment for 24 hours.
Supernatant levels of IL-6 from the THP-1 monocyte monoculture with sCAR (or smCAR) are determined by ELISA.

[6] = test system: HUVEC endothelial cells; test: IL-6 and IL-8 ELISA of HUVEC endothelial cells treated with sCAR; format: cell-based, human; conditions: sCAR stimulation, 24 hours; concentrations of Table 2
Protocol: (§4) In like manner and also in Example 3 below, sCAR (or smCAR) is added to endothelial (HUVEC) cells, available from the American Type Culture Collection, and using an equivalent protocol to the treatment of THP-1 cells (but with individually optimised conditions, such as the concentration of sCAR used), following which IL-6 release and IL-8 release are observed. Pro-inflammatory cytokines IL-6 and IL-8 are measured using an enzyme-linked immunosorbent assay (ELISA) and IL-6, ICAM1 and VCAM1 are measured by quantitative PCR (QPCR, for which a kit is suitably obtainable from Thermo Fisher Scientific of Kingfisher Dr, Swindon SN3 5BZ, UK).
(§5) sCAR (or smCAR), produced as described in Example 1 above, is added to a monoculture of HUVEC endothelial cells in the presence of UR-13870, Ralimetinib or Acumapimod at each of the concentrations shown in Table 2 above, at 37° C., 5% CO2 and a suitably humid environment for 24 hours.
Supernatant levels of IL-6 and IL-8 from the HUVEC endothelial cell monoculture with sCAR (or smCAR) are determined by ELISA.

[7] = test system: HUVEC endothelial cells; test: QPCR of VCAM1, ICAM1 and IL-6 in HUVEC cells treated with sCAR; format: cell-based, human; conditions: 24 hours
Protocol: as §4, §5

[8] = test system: HUVEC endothelial cells; test: IL-6 and IL-8 ELISA of HUVEC cells treated with sCART-mono supernatant; format: cell-based, human; conditions: 24 hr, concentrations of Table 2
Protocol: (§6) With reference to FIG. 13 of the accompanying drawings, a co-culture (100) is established using a standard cell culture transwell dish, including a first compartment (101), containing CAR T cells and cancer cells (at a 1:1 ratio), which is separated from a second compartment (102), containing monocytes, by a semi-permeable membrane (103) composed of tissue-culture treated polyethylene terephthalate with a 0.4 μm pore size.
(§7) Each of UR-13870, Acumapimod and Ralimetinib are administered to the co-culture following a procedure analogous to that described in Example 2 above (at the concentrations as shown in Table 2 above).
(§8) The co-culture is incubated at 37° C., 5% CO2 and a suitably humid environment for 24 hours. On completion, the transwell insert is removed and supernatant is isolated. Cells and debris are removed from the supernatant by exposing the container to a centripetal force of 400 G and gently pipetting the supernatant into a new container without disturbing the cell pellet at the bottom of the previous container.
(§9) Prior to adding the p38 inhibitors and sCART-mono, endothelial cells are incubated overnight at 37° C. and 5% CO2 in a suitably humid environment to allow the cells to adhere fully to the tissue culture dish.
Supernatant levels of IL-6 and IL-8 are determined following 24 hr treatment with sCART-mono and the p38 MAPK inhibitors by ELISA.

[9] = test system: HUVEC endothelial cells; test: QPCR of ICAM1 in HUVEC cells treated with sCART-mono supernatant; format: cell-based, human; conditions: 24 hours
Protocol: as §6, §7, §8, §9
Reduced endothelial cell activation is evidenced by reduced ICAM1 expression in response to treatment with UR-13870, Acumapimod and Ralimetinib.

[10] = test system: CAR T cells; conditions: in vitro expansion; inhibitor washed out before adoptive transfer; cited from earlier work

| SMILES | CAR T cell proliferation (Cell Trace Violet staining) [1] | CAR T cell-induced cancer cell death (percentage of residual tumour cells in the co-culture) [2] | number of TIM3+ CAR T cells [3] | number of LAG3+ CAR T cells [3] | TNF-α secretion (co-culture supernatant) [4] | IL-6 secretion by THP-1 monocytes [5] | IL-6 secretion by HUVEC cells [6] | IL-8 supernatant level, HUVEC cells [6] | ICAM1 mRNA levels [7] | IL-6 mRNA levels [7] | VCAM1 mRNA levels [7] | IL-6 levels in supernatant [8] | IL-8 levels in supernatant [8] | ICAM1 expression (endothelial cell activation) [9] | CAR T cell phenotypes [10] |
| --- | --- | --- | --- | --- | --- | --- | --- | --- | --- | --- | --- | --- | --- | --- | --- |
| Cc1ccc(C(=O)NC2CC2)cc1-n1ncc(C(=O)c2cccc(C#N)c2)c1N [Acumapimod, 3-[5-amino-4-(3-cyanobenzoyl)pyrazol-1-yl]-N-cyclopropyl-4-methylbenzamide] | maintain CAR T cell proliferation | maintain CAR T cell-induced cancer cell death | reduce | reduce | reduced | significantly reduce | significantly reduce | reduced | significantly reduce | significantly reduce | reduced, albeit non-significantly | reduced | (albeit non-significant) downward trend | reduced | – |
| Cc1ccc(-n2nc(C(C)(C)C)cc2NC(=O)Nc2ccc(OCCN3CCOCC3)c3ccccc23)cc1 [Doramapimod/BIRB796] | – | – | – | – | – | – | – | – | – | – | – | – | – | – | promote desirable CAR T cell phenotypes in vitro |
| CC(C)(C)Cn1c(N)nc2ccc(-c3[nH]c(C(C)(C)C)nc3-c3ccc(F)cc3)nc21 [Ralimetinib, 5-[2-tert-Butyl-4-(4-fluorophenyl)-1H-imidazol-5-yl]-3-(2,2-dimethylpropyl)imidazo[4,5-b]pyridin-2-amine] | maintain CAR T cell proliferation | maintain CAR T cell-induced cancer cell death | reduce | reduce | reduced | significantly reduce | significantly reduce | reduced | significantly reduce | significantly reduce | reduced, albeit non-significantly | reduced | (albeit non-significant) downward trend | reduced | – |
